Test results reported in paper PMC9519446, “Discovery of an Orally Active Benzoxaborole Prodrug Effective in the Treatment of Chagas Disease in Non-human Primates” (Nature microbiology, 2022).
Several values for one entry are separate records, joined by “and”; a condition that tells them apart may be missing. Identical values can stand only once.

Test: NHP health screening: serum chemistry
Assay type: in vivo, rhesus macaques (Macaca mulatta)
[1] = Mid-dosing bleed, treated animals, individual values
[2] = Post-dosing bleed, treated animals, individual values
[3] = Post-dosing bleed, Mean of treated F animals
[4] = Post-dosing bleed, individual treated animals
[5] = drug-treatment phase, returned to pre-study values by the final blood draw

Procedure: Under light-anesthesia/sedation, peripheral blood samples were collected from each animal prior to treatment and at 7 time points following. Blood analysis (CBC and serum chemistry assays) and physical exams to evaluate the health of the study animals were performed on each animal prior to the beginning of the study and also at three time points during the treatment protocol (see Supplementary data).

Cc1c(C(=O)N[C@H](C(=O)OCC2CCOCC2)C(C)C)ccc2c1B(O)OC2 [AN15368]
Glob [1]: 3.3 G/Dl and 3.1 G/Dl and 2.8 G/Dl and 3.4 G/Dl and 2.9 G/Dl and 4.1 G/Dl and 3.8 G/Dl and 2.7 G/Dl and 2.5 G/Dl and 3 G/Dl and 3.5 G/Dl and 3.2 G/Dl
Gluc [1]: 69 Mg/Dl and 72 Mg/Dl and 58 Mg/Dl and 65 Mg/Dl and 66 Mg/Dl and 56 Mg/Dl and 73 Mg/Dl and 55 Mg/Dl and 63 Mg/Dl and 70 Mg/Dl and 48 Mg/Dl and 54 Mg/Dl and 79 Mg/Dl and 68 Mg/Dl and 53 Mg/Dl
K [1]: 3.9 Meq/L and 3.6 Meq/L and 3.3 Meq/L and 3.4 Meq/L and 3.5 Meq/L and 4.3 Meq/L and 3.8 Meq/L and 3.7 Meq/L
Ldh [1]: 473 Iu/L and 139 Iu/L and 164 Iu/L and 148 Iu/L and 134 Iu/L and 214 Iu/L and 259 Iu/L and 376 Iu/L and 250 Iu/L and 266 Iu/L and 183 Iu/L and 238 Iu/L and 449 Iu/L and 154 Iu/L and 213 Iu/L and 475 Iu/L and 156 Iu/L and 198 Iu/L and 375 Iu/L
Na [1]: 148 Meq/L and 150 Meq/L and 147 Meq/L and 144 Meq/L and 149 Meq/L and 146 Meq/L and 152 Meq/L
Osmo [1]: 284 Mosm/Kg and 289 Mosm/Kg and 281 Mosm/Kg and 283 Mosm/Kg and 288 Mosm/Kg and 276 Mosm/Kg and 286 Mosm/Kg and 280 Mosm/Kg and 287 Mosm/Kg and 293 Mosm/Kg and 285 Mosm/Kg and 282 Mosm/Kg
Phos [1]: 3.3 Mg/Dl and 3.8 Mg/Dl and 2 Mg/Dl and 2.4 Mg/Dl and 1 Mg/Dl and 2.2 Mg/Dl and 3.9 Mg/Dl and 2.5 Mg/Dl and 3.6 Mg/Dl and 3.1 Mg/Dl and 1.8 Mg/Dl and 4.8 Mg/Dl and 3.2 Mg/Dl
Tbil [1]: 0.18 Mg/Dl and 0.17 Mg/Dl and 0.14 Mg/Dl and 0.2 Mg/Dl and 0.16 Mg/Dl and 0.19 Mg/Dl and 0.15 Mg/Dl and 0.13 Mg/Dl
Tco2 [1]: 26 Meq/L and 28 Meq/L and 27 Meq/L and 25 Meq/L and 30 Meq/L and 24 Meq/L
Tibc [1]: 376 µg/dL and 358 µg/dL and 410 µg/dL and 408 µg/dL and 348 µg/dL and 343 µg/dL and 359 µg/dL and 373 µg/dL and 383 µg/dL and 429 µg/dL and 377 µg/dL and 326 µg/dL and 340 µg/dL and 412 µg/dL and 337 µg/dL and 324 µg/dL and 325 µg/dL
Tp [1]: 7.2 G/Dl and 6.7 G/Dl and 7.3 G/Dl and 7.5 G/Dl and 6.4 G/Dl and 7 G/Dl and 6.9 G/Dl and 6.5 G/Dl and 6.8 G/Dl and 6.6 G/Dl
Trig [1]: 99 Mg/Dl and 148 Mg/Dl and 81 Mg/Dl and 85 Mg/Dl and 108 Mg/Dl and 72 Mg/Dl and 32 Mg/Dl and 141 Mg/Dl and 65 Mg/Dl and 82 Mg/Dl and 79 Mg/Dl and 102 Mg/Dl and 29 Mg/Dl and 76 Mg/Dl and 70 Mg/Dl and 62 Mg/Dl and 66 Mg/Dl and 95 Mg/Dl
Agap [2]: 16 Meq/L and 14 Meq/L
Alb [2]: 3.9 G/Dl and 3.7 G/Dl
Alp [2]: 111 Iu/L and 100 Iu/L and 77 Iu/L
Alt [2]: 52 Iu/L and 63 Iu/L and 59 Iu/L
Ast [2]: 26 Iu/L and 34 Iu/L and 32 Iu/L
Bun [2]: 17 Mg/Dl and 14 Mg/Dl
Ca [2]: 9.5 Mg/Dl and 8.9 Mg/Dl
Chol [2]: 187 mg/dL and 193 mg/dL and 141 mg/dL
Ck [2]: 260 Iu/L and 337 Iu/L and 328 Iu/L
Cl [2]: 107 Meq/L and 111 Meq/L
Crea [2]: 0.58 Mg/Dl and 0.78 Mg/Dl and 0.68 Mg/Dl
Fe [2]: 135 µg/dL and 99 µg/dL and 93 µg/dL
Ggt [2]: 41 Iu/L and 54 Iu/L and 38 Iu/L
Glob [2]: 3.3 G/Dl and 3.1 G/Dl and 2.9 G/Dl
Gluc [2]: 63 Mg/Dl and 84 Mg/Dl and 51 Mg/Dl
K [2]: 3.5 Meq/L and 3.4 Meq/L
Ldh [2]: 217 Iu/L and 509 Iu/L and 322 Iu/L
Na [2]: 147 Meq/L and 146 Meq/L and 148 Meq/L
Osmo [2]: 283 Mosm/Kg and 281 Mosm/Kg and 284 Mosm/Kg
Phos [2]: 4.6 Mg/Dl and 3.2 Mg/Dl and 2.1 Mg/Dl
Tbil [2]: 0.19 Mg/Dl and 0.14 Mg/Dl and 0.12 Mg/Dl
Tco2 [2]: 28 Meq/L and 26 Meq/L
Tibc [2]: 357 µg/dL and 333 µg/dL and 388 µg/dL
Tp [2]: 7.2 G/Dl and 6.8 G/Dl and 6.6 G/Dl
Trig [2]: 64 Mg/Dl and 152 Mg/Dl and 111 Mg/Dl
Agap [3]: 15.0556 Meq/L
Alb [3]: 3.833 G/Dl
Alp [3]: 103.5 Iu/L
Alt [3]: 52.5556 Iu/L
Ast [3]: 30.8889 Iu/L
Bun [3]: 14.9444 Mg/Dl
Ca [3]: 9.256 Mg/Dl
Chol [3]: 143.944 mg/dL
Ck [3]: 504.722 Iu/L
Cl [3]: 109.722 Meq/L
Crea [3]: 0.695 Mg/Dl
Fe [3]: 115.333 µg/dL
Ggt [3]: 47 Iu/L
Glob [3]: 3.178 G/Dl
Gluc [3]: 64.6667 Mg/Dl
K [3]: 3.617 Meq/L
Ldh [3]: 322.722 Iu/L
Na [3]: 147.667 Meq/L
Osmo [3]: 283.5 Mosm/Kg
Phos [3]: 3.244 Mg/Dl
Tbil [3]: 0.1383 Mg/Dl
Tco2 [3]: 26.6111 Meq/L
Tibc [3]: 363.444 µg/dL
Tp [3]: 7.006 G/Dl
Trig [3]: 77.7222 Mg/Dl
Agap [4]: 14 Meq/L and 13 Meq/L and 17 Meq/L and 15 Meq/L and 19 Meq/L
Alb [4]: 3.7 G/Dl and 3.8 G/Dl and 3.6 G/Dl and 3.3 G/Dl and 3.5 G/Dl and 4.1 G/Dl and 4.2 G/Dl and 4 G/Dl and 3.4 G/Dl and 3.9 G/Dl
Alp [4]: 195 Iu/L and 100 Iu/L and 87 Iu/L and 122 Iu/L and 132 Iu/L and 143 Iu/L and 66 Iu/L and 83 Iu/L and 80 Iu/L and 105 Iu/L and 138 Iu/L and 102 Iu/L and 69 Iu/L and 79 Iu/L
Alt [4]: 97 Iu/L and 39 Iu/L and 41 Iu/L and 87 Iu/L and 35 Iu/L and 91 Iu/L and 28 Iu/L and 31 Iu/L and 48 Iu/L and 71 Iu/L and 43 Iu/L and 46 Iu/L and 64 Iu/L
Ast [4]: 40 Iu/L and 30 Iu/L and 31 Iu/L and 28 Iu/L and 27 Iu/L and 20 Iu/L and 42 Iu/L and 18 Iu/L and 26 Iu/L and 32 Iu/L and 45 Iu/L and 35 Iu/L
Bun [4]: 12 Mg/Dl and 16 Mg/Dl and 17 Mg/Dl and 10 Mg/Dl and 18 Mg/Dl and 15 Mg/Dl and 13 Mg/Dl and 20 Mg/Dl and 11 Mg/Dl and 14 Mg/Dl
Ca [4]: 9.1 Mg/Dl and 8.8 Mg/Dl and 9 Mg/Dl and 9.3 Mg/Dl and 9.8 Mg/Dl and 9.2 Mg/Dl and 9.6 Mg/Dl and 9.4 Mg/Dl and 9.5 Mg/Dl and 8.7 Mg/Dl
Chol [4]: 121 mg/dL and 130 mg/dL and 133 mg/dL and 163 mg/dL and 147 mg/dL and 123 mg/dL and 150 mg/dL and 157 mg/dL and 141 mg/dL and 125 mg/dL and 129 mg/dL and 155 mg/dL and 160 mg/dL and 115 mg/dL and 127 mg/dL
Ck [4]: 628 Iu/L and 657 Iu/L and 306 Iu/L and 255 Iu/L and 667 Iu/L and 292 Iu/L and 656 Iu/L and 625 Iu/L and 240 Iu/L and 479 Iu/L and 309 Iu/L and 783 Iu/L and 341 Iu/L and 1583 Iu/L and 339 Iu/L and 291 Iu/L
Cl [4]: 109 Meq/L and 111 Meq/L and 108 Meq/L and 113 Meq/L and 110 Meq/L and 107 Meq/L
Crea [4]: 0.68 Mg/Dl and 0.84 Mg/Dl and 0.9 Mg/Dl and 0.6 Mg/Dl and 0.64 Mg/Dl and 0.7 Mg/Dl and 0.75 Mg/Dl and 0.83 Mg/Dl and 0.62 Mg/Dl and 0.65 Mg/Dl and 0.78 Mg/Dl and 0.66 Mg/Dl and 0.53 Mg/Dl
Fe [4]: 123 µg/dL and 100 µg/dL and 104 µg/dL and 102 µg/dL and 72 µg/dL and 129 µg/dL and 105 µg/dL and 154 µg/dL and 174 µg/dL and 67 µg/dL and 109 µg/dL and 144 µg/dL and 159 µg/dL and 136 µg/dL
Ggt [4]: 47 Iu/L and 54 Iu/L and 63 Iu/L and 53 Iu/L and 51 Iu/L and 30 Iu/L and 52 Iu/L and 29 Iu/L and 39 Iu/L and 31 Iu/L and 89 Iu/L and 35 Iu/L and 42 Iu/L
Glob [4]: 3.3 G/Dl and 2.9 G/Dl and 4 G/Dl and 3.5 G/Dl and 3 G/Dl and 3.2 G/Dl and 2.7 G/Dl and 2.8 G/Dl and 3.4 G/Dl
Gluc [4]: 67 Mg/Dl and 57 Mg/Dl and 69 Mg/Dl and 65 Mg/Dl and 74 Mg/Dl and 62 Mg/Dl and 70 Mg/Dl and 48 Mg/Dl and 50 Mg/Dl and 58 Mg/Dl and 66 Mg/Dl and 75 Mg/Dl and 86 Mg/Dl and 44 Mg/Dl and 51 Mg/Dl
K [4]: 3.6 Meq/L and 3.5 Meq/L and 3.7 Meq/L and 4.4 Meq/L and 3.4 Meq/L and 3.8 Meq/L
Ldh [4]: 356 Iu/L and 197 Iu/L and 294 Iu/L and 209 Iu/L and 260 Iu/L and 107 Iu/L and 225 Iu/L and 392 Iu/L and 204 Iu/L and 300 Iu/L and 485 Iu/L and 796 Iu/L and 178 Iu/L and 365 Iu/L and 393 Iu/L and 524 Iu/L
Na [4]: 147 Meq/L and 150 Meq/L and 148 Meq/L and 151 Meq/L and 146 Meq/L and 149 Meq/L and 145 Meq/L
Osmo [4]: 281 Mosm/Kg and 288 Mosm/Kg and 283 Mosm/Kg and 282 Mosm/Kg and 284 Mosm/Kg and 291 Mosm/Kg and 280 Mosm/Kg and 286 Mosm/Kg and 279 Mosm/Kg and 287 Mosm/Kg
Phos [4]: 2.4 Mg/Dl and 1.8 Mg/Dl and 1.9 Mg/Dl and 2.7 Mg/Dl and 3.6 Mg/Dl and 3.8 Mg/Dl and 4.7 Mg/Dl and 2.9 Mg/Dl and 3.7 Mg/Dl and 5.2 Mg/Dl and 2.1 Mg/Dl and 4.6 Mg/Dl and 4.3 Mg/Dl and 4 Mg/Dl
Tbil [4]: 0.15 Mg/Dl and 0.13 Mg/Dl and 0.1 Mg/Dl and 0.14 Mg/Dl and 0.17 Mg/Dl and 0.12 Mg/Dl and 0.11 Mg/Dl and 0.16 Mg/Dl
Tco2 [4]: 28 Meq/L and 30 Meq/L and 26 Meq/L and 25 Meq/L and 24 Meq/L and 29 Meq/L and 23 Meq/L
Tibc [4]: 379 µg/dL and 363 µg/dL and 332 µg/dL and 367 µg/dL and 386 µg/dL and 356 µg/dL and 359 µg/dL and 419 µg/dL and 437 µg/dL and 354 µg/dL and 325 µg/dL and 353 µg/dL and 316 µg/dL and 309 µg/dL
Tp [4]: 7 G/Dl and 6.7 G/Dl and 7.6 G/Dl and 6.8 G/Dl and 7.5 G/Dl and 7.1 G/Dl and 6.9 G/Dl and 7.2 G/Dl
Trig [4]: 78 Mg/Dl and 58 Mg/Dl and 56 Mg/Dl and 74 Mg/Dl and 63 Mg/Dl and 59 Mg/Dl and 42 Mg/Dl and 61 Mg/Dl and 158 Mg/Dl and 51 Mg/Dl and 44 Mg/Dl and 113 Mg/Dl and 93 Mg/Dl and 100 Mg/Dl
alanine aminotransferase (ALT), mean value [5]: mildly elevated
alkaline phosphatase (ALP), mean value [5]: mildly elevated
